The target in experiment [1] is T1, human CRHR2 (Homo sapiens, UniProt Q13324).
T1 construct: expressed in transfected cells
T1 sequence (Q13324 1-438 isoform Q13324-2): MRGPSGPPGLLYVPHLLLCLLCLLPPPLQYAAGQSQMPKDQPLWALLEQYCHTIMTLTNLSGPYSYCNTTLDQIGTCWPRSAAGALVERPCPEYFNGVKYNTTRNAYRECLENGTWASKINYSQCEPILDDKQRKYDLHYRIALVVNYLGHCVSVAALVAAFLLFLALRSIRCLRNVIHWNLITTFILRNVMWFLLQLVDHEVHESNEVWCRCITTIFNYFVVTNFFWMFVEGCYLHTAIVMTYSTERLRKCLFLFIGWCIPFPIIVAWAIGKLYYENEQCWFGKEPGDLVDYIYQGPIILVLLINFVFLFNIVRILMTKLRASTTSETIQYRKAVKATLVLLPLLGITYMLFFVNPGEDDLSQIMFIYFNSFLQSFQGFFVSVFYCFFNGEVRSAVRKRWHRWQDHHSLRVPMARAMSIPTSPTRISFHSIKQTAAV
In words: Human CRHR2 cAMP assay (HTRF) in HEK293 cells stably expressing human CRHR2. It counts as cell-based. Particulars: HEK293 cells overexpressing human CRHR2; relative EC50, maximum 10 nM human UCN2; mean ± SE; read-out: hCRHR2 cAMP EC50 (pM, ± SE). The method, boiled down: (§1)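 Stably expressing HEK293 clones received peptide concentration series in phosphodiesterase-inhibited buffer (0.25 mM IBMX, pH 7.4). After receptor-specific incubation (CRHR1 1 h at 37° C; CRHR2 30 min at room temperature), cells were lysed with HTRF cAMP reagents for 60 min and the 665/620 nm ratio recorded.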
Background: Cyclic AMP is a second messenger, typically raised through Gs and lowered through Gi signalling.

The target of experiment [2] is T2, human CRHR1 (Homo sapiens, UniProt P34998).
T2 construct: expressed in transfected cells
T2 sequence (P34998 24-415): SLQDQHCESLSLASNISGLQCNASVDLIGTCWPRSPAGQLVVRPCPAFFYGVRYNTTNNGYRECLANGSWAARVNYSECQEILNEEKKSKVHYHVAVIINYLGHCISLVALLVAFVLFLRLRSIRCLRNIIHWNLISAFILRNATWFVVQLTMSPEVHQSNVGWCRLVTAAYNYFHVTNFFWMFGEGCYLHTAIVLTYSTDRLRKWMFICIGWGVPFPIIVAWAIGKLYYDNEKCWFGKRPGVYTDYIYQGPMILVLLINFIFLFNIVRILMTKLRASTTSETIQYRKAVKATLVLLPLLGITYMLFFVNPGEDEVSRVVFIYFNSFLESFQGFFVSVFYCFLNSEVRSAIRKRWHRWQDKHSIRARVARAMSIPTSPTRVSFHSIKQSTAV
In words: Human CRHR1 cAMP assay (HTRF) in HEK293 cells stably expressing human CRHR1. It counts as cell-based. Particulars: HEK293 cells overexpressing human CRHR1; relative EC50, maximum 66 nM human UCN1; mean ± SE; read-out: hCRHR1 cAMP EC50 (pM, ± SE). The method, boiled down:
as §1

*1 amine or outer side, *2 acyl side, *3 side chain or, on linkers, in order; H or OH if unused. Where a SMILES comes first, the peptide text is derived from it. Bridges are numbered along the chain shown (N, C = ends). Roman numbers before positions name the chains, in order. Side-chain parts run from the residue outwards. [ ]: non-standard residue; d: D form. The star is where a group is joined. C20 diacid = O=C(O)CCCCCCCCCCCCCCCCCCC(=O)*; γGlu = O=C(O)[C@H](CCC(=O)[*:2])N[*:1]; εLys = N[C@@H](CCCCN[*:1])C(=O)[*:2]; αMeL = CC(C)C[C@](C)(N)C(=O)O; AEEA = NCCOCCOCC(=O)O; Aib = CC(C)(N)C(=O)O; βAla = NCCC(=O)O Where only a bound is given, the exact number is not on record here.

Results on nine compounds are retold here after patent US20250163119A1, “COMPOUNDS FOR THE TREATMENT OF DIABETES OR OBESITY” (Eli Lilly and Company, priority 2023, published 2025).

For “Ac-GSPSIVTS[αMeL]DVPT[Aib][αMeL]LQKILEQERAEKARQQAK([AEEA-Pro-Lys-Glu-γGlu-C20 diacid])EAAEILAQV-NH2 [SEQ ID NO: 3, Ac-GSPSIVTS αMeL DVPT Aib αMeL LQKILEQERAEKARQQAK((2-[2-(2-Amino-ethoxy)-ethoxy]-acetyl)-PKE-γE-CO-(CH2)18-CO2H)EAAEILAQV-NH2]”, the EC50 – broadly, the concentration giving half of the maximal effect – was 18.3 ± 2.1 pM in experiment [1] and over 1e+07 pM in experiment [2].
With “Ac-GSPSIVTS[αMeL]DVPT[Aib][αMeL]LQKILEQERAEKARQQAK([γGlu-AEEA-AEEA-εLys-C20 diacid])EAAEILAQV-NH2 [SEQ ID NO: 17, Ac-GSPSIVTS αMeL DVPT Aib αMeL LQKILEQERAEKARQQAK(γE-(2-[2-(2-Amino-ethoxy)-ethoxy]-acetyl)2-ϵK-CO-(CH2)18-CO2H)EAAEILAQV-NH2]”, the results for the 50% effective concentration (EC50) in experiment [1] and in experiment [2] were 9.5 ± 0.9 pM and over 1e+07 pM, respectively.
As to `CC[C@H](C)[C@H](NC(C)=O)C(=O)N[C@H](C(=O)N[C@H](C(=O)N[C@@H](CO)C(=O)N[C@@](C)(CC(C)C)C(=O)N[C@@H](CC(=O)O)C(=O)N[C@@H](C(=O)N1CCC[C@H]1C(=O)N[C@H](C(=O)NCC(=O)N[C@@](C)(CC(C)C)C(=O)N[C@@H](CC(C)C)C(=O)N[C@@H](CCC(N)=O)C(=O)N[C@H](C(=O)N[C@@H](CCCCN)C(=O)N[C@@H](CC(C)C)C(=O)N[C@@H](CCC(=O)O)C(=O)N[C@@H](CCC(N)=O)C(=O)N[C@@H](CCC(=O)O)C(=O)N[C@@H](CCCNC(=N)N)C(=O)N[C@@H](C)C(=O)N[C@@H](CCC(=O)O)C(=O)N[C@@H](CCCCN)C(=O)N[C@@H](C)C(=O)N[C@@H](CCCNC(=N)N)C(=O)N[C@@H](CCC(N)=O)C(=O)N[C@@H](CCC(N)=O)C(=O)N[C@@H](C)C(=O)N[C@@H](CCCCNC(=O)[C@@H](N)CCCCNC(=O)COCCOCCNC(=O)CC[C@H](NC(=O)CCCCCCCCCCCCCCCCCCC(=O)O)C(=O)O)C(=O)N[C@@H](CCC(=O)O)C(=O)N[C@@H](CC(N)=O)C(=O)N[C@H](C(=O)N[C@@H](CCC(=O)O)C(=O)N[C@H](C(=O)N[C@@H](CC(C)C)C(=O)N[C@@H](C)C(=O)N[C@@H](CCC(N)=O)C(=O)N[C@H](C(N)=O)C(C)C)[C@@H](C)CC)[C@@H](C)O)[C@@H](C)CC)[C@@H](C)O)C(C)C)[C@@H](C)O)C(C)C` [SEQ ID NO: 34, Ac-IVTS αMeL D (D-Val) PTG αMeL LQIKLEQERAEKARQQAK(ϵK-(2-[2-(2-Amino-ethoxy)-ethoxy]-acetyl)-γE-CO-(CH2)18-CO2H)ENTEILAQV-NH2] (Ac-IVTS[αMeL]D[dV]PTG[αMeL]LQIKLEQERAEKARQQAK([εLys-AEEA-γGlu-C20 diacid])ENTEILAQV-NH2), the EC50 in experiment [1] was 4.9 ± 0.7 pM; in experiment [2] it was over 1e+07 pM.
Turning to “I: Ac-GSPSIVTS[αMeL]DVPT[Aib][αMeL]LQKILEQERAEKARQQAKEAAEILAQV-NH2 / II: {C20 diacid}-PPPPPP[γGlu] (amide I:33-II:C) [SEQ ID NO: 15, Ac-GSPSIVTS αMeL DVPT Aib αMeL LQKILEQERAEKARQQAK(γE-PPPPPP-CO-(CH2)18-CO2H)EAAEILAQV-NH2]”, the EC50 in experiment [1] is 11.3 ± 0.4 pM; in experiment [2] it was over 1e+07 pM.
For “Ac-GSPSIVTS[αMeL]DVPT[Aib][αMeL]LQKILEQERAEKARQQAK([βAla-Ser-βAla-Ser-γGlu-C20 diacid])EAAEILAQV-NH2 [SEQ ID NO: 10, Ac-GSPSIVTS αMeL DVPT Aib αMeL LQKILEQERAEKARQQAK((βA)-S-(βA)-S-γE-CO-(CH2)18-CO2H)EAAEILAQV-NH2]”, in that order: 10.1 ± 1.1 pM and over 1e+07 pM.
Turning to “H-GSPSIVTS[αMeL]DVPT[Aib][αMeL]LQKILEQERAEKARQQATEAAEILAQV-NH2 [SEQ ID NO: 27]”, the EC50 in experiment [1] is 23.6 ± 2.9 pM; in experiment [2] it was over 1e+07 pM.
The like results for `CC[C@H](C)[C@H](NC(=O)[C@H](CCC(=O)O)NC(=O)[C@H](C)NC(=O)[C@H](C)NC(=O)[C@H](CCC(=O)O)NC(=O)[C@H](CCCCNC(=O)CC[C@H](NC(=O)CNC(=O)[C@H](CCCCN)NC(=O)[C@H](CCC(=O)O)NC(=O)[C@H](CCCCN)NC(=O)[C@H](CCC(=O)O)NC(=O)[C@H](CCCCN)NC(=O)[C@H](CCC(=O)O)NC(=O)CCCCCCCCCCCCCCCCCCC(=O)O)C(=O)O)NC(=O)[C@H](C)NC(=O)[C@H](CCC(N)=O)NC(=O)[C@H](CCC(N)=O)NC(=O)[C@H](CCCNC(=N)N)NC(=O)[C@H](C)NC(=O)[C@H](CCCCN)NC(=O)[C@H](CCC(=O)O)NC(=O)[C@H](C)NC(=O)[C@H](CCCNC(=N)N)NC(=O)[C@H](CCC(=O)O)NC(=O)[C@H](CCC(N)=O)NC(=O)[C@H](CCC(=O)O)NC(=O)[C@H](CC(C)C)NC(=O)[C@@H](NC(=O)[C@H](CCCCN)NC(=O)[C@H](CCC(N)=O)NC(=O)[C@H](CC(C)C)NC(=O)[C@](C)(CC(C)C)NC(=O)C(C)(C)NC(=O)[C@@H](NC(=O)[C@@H]1CCCN1C(=O)[C@@H](NC(=O)[C@H](CC(=O)O)NC(=O)[C@](C)(CC(C)C)NC(=O)[C@H](CO)NC(=O)[C@@H](NC(=O)[C@@H](NC(=O)[C@@H](NC(=O)[C@H](CO)NC(=O)[C@@H]1CCCN1C(=O)[C@H](CO)NC(=O)CNC(C)=O)[C@@H](C)CC)C(C)C)[C@@H](C)O)C(C)C)[C@@H](C)O)[C@@H](C)CC)C(=O)N[C@@H](CC(C)C)C(=O)N[C@@H](C)C(=O)N[C@@H](CCC(N)=O)C(=O)N[C@H](C(N)=O)C(C)C` [SEQ ID NO: 6, Ac-GSPSIVTS αMeL DVPT Aib αMeL LQKILEQERAEKARQQAK(γE-GKEKEKE-CO-(CH2)18-CO2H)EAAEILAQV-NH2] were, in that order, 10.1 ± 2.5 pM and over 1e+07 pM.
In the case of `CC[C@H](C)[C@H](NC(C)=O)C(=O)N[C@H](C(=O)N[C@H](C(=O)N[C@@H](CO)C(=O)N[C@@](C)(CC(C)C)C(=O)N[C@@H](CC(=O)O)C(=O)N[C@@H](C(=O)N1CCC[C@H]1C(=O)N[C@H](C(=O)NCC(=O)N[C@@](C)(CC(C)C)C(=O)N[C@@H](CC(C)C)C(=O)N[C@@H](CCC(N)=O)C(=O)N[C@H](C(=O)N[C@@H](CCCCN)C(=O)N[C@@H](CC(C)C)C(=O)N[C@@H](CCC(=O)O)C(=O)N[C@@H](CCC(N)=O)C(=O)N[C@@H](CCC(=O)O)C(=O)N[C@@H](CCCNC(=N)N)C(=O)N[C@@H](C)C(=O)N[C@@H](CCC(=O)O)C(=O)N[C@@H](CCCCN)C(=O)N[C@@H](C)C(=O)N[C@@H](CCCNC(=N)N)C(=O)N[C@@H](CCC(N)=O)C(=O)N[C@@H](CCC(N)=O)C(=O)N[C@@H](C)C(=O)N[C@@H](CCCCNC(=O)CC[C@H](NC(=O)CC[C@H](NC(=O)[C@@H](N)CCCCNC(=O)CCCCCCCCCCCCCCCCCCC(=O)O)C(=O)O)C(=O)O)C(=O)N[C@@H](CCC(=O)O)C(=O)N[C@@H](CC(N)=O)C(=O)N[C@H](C(=O)N[C@@H](CCC(=O)O)C(=O)N[C@H](C(=O)N[C@@H](CC(C)C)C(=O)N[C@@H](C)C(=O)N[C@@H](CCC(N)=O)C(=O)N[C@H](C(N)=O)C(C)C)[C@@H](C)CC)[C@@H](C)O)[C@@H](C)CC)[C@@H](C)O)C(C)C)[C@@H](C)O)C(C)C` [SEQ ID NO: 38, Ac-IVTS αMeL D (D-Val) PTG αMeL LQIKLEQERAEKARQQAK(γE-γE-ϵK-CO-(CH2)18-CO2H)ENTEILAQV-NH2] (Ac-IVTS[αMeL]D[dV]PTG[αMeL]LQIKLEQERAEKARQQAK([γGlu-γGlu-εLys-C20 diacid])ENTEILAQV-NH2), the figures for the EC50 in experiment [1] and in experiment [2] were 6.3 ± 2.1 pM and 1.1e+06 pM, respectively.
The like results for “Ac-PPPIVTS[αMeL]D[dV]PT[Aib][αMeL]LQKLLEQERAEKARQQAK([γGlu-AEEA-εLys-C20 diacid])EAAEILAQV-NH2 [SEQ ID NO: 47, Ac-PPPIVTS αMeL D (D-Val) PT Aib αMeL LQKLLEQERAEKARQQAK(γE-(2-[2-(2-Amino-ethoxy)-ethoxy]-acetyl)-ϵK-CO-(CH2)18-CO2H)EAAEILAQV-NH2]” were, in that order, 17.5 ± 2.2 pM and 2.3e+06 pM.
